Test results taken from article PMC3984256, “A PCNA-Derived Cell Permeable Peptide Selectively Inhibits Neuroblastoma Cell Growth” (PLoS ONE, 2014).
Where a SMILES comes first, the peptide text is derived from it. [ ]: non-standard residue; d: D form.

How the values were obtained:
[1] = tested on: PCNA and FEN1 co-localization in SK-N-AS NB cells; assay: PCNA/FEN1 co-localization, immunofluorescence; type: cell-based, human; conditions: synchronized, 30 µM peptide 6 h after mimosine release
Protocol: Cells were seeded at 1×10^5/ml onto a chamber slide and were allowed to attach overnight. To analyze the interaction of PCNA with FEN1, LIGI, or Pol ä, we first synchronize cells at the G1/S boundary. The synchronization is achieved by starving cells in medium containing 0.25% FBS for 24 h. Cells were further cultured in the complete medium containing 400 µM of mimosine for 24 h. To release cells into S phase, cells were washed and incubated in mimosine-free medium containing 30 µM R9-caPep or R9-srbPep for 6 h. We pre-determined that the majority of cells were in the S-phase 6 h after mimosine was removed (data not shown). Cells were fixed in ice-cold methanol:acetone (50%:50%) for 10 min or in 4% paraformaldehyde for 20 min at room temperature. Cells were incubated with a goat polyclonal anti-PCNA antibody (Santa Cruz) and a mouse monoclonal anti-FEN1 antibody (Santa Cruz), a mouse anti-POLD3 antibody (Sigma, St. Louis, MO), or a mouse anti-LIGI antibody (Abcam, Cambridge, MA) for 1 h at room temperature. After being washed with PBS, cells were incubated with Alexa Fluor 488 conjugated anti-mouse IgG and Alexa Fluor 555 conjugated anti-goat IgG antibodies (Invitrogen, Grand Island, NY) for 1 h. Cells were mounted in Vectashield with DAPI (Vector Labs, Burlingame, CA) and visualized by a confocal microscope.

[2] = tested on: intracellular LIGI or FEN1 level; assay: Western blot of intracellular LIGI or FEN1 level (data not shown); type: cell-based
[3] = tested on: HR-mediated DSB repair, U2OS-derived DR-GFP cells; assay: DSB repair reporter assay, HR (DR-GFP); type: cell-based; conditions: 30 µM, GFP-positive cells 3 d after I-SceI transfection, normalized to R9-srbPep, triplicates
Protocol: The plasmid pCBASce expresses the rare cutting I-SceI meganuclease. The U2OS-derived cell lines, DR-GFP, EJ5-GFP, and SA-GFP contain a stably transfected reporter gene for DSB repair mediated by HR, end joining (EJ), and single-strand annealing (SSA), respectively. These cell lines were cultured in DMEM medium with 10% FBS at 37°C in the presence of 5% CO2.
DR-GFP, EJ5-GFP, and SA-GFP cell lines were seeded at 2.5×10^4 cells/cm^2 in a 12-well plate. Once attached overnight, cells were transfected with 1.2 µg of the pCBASce I-SceI expression plasmid mixed with 3.6 µl of Lipofectamine 2000 (Invitrogen) in 200 µl of Optimem media (Invitrogen). After incubation for 3 h, the media containing transfection complexes was aspirated and replaced with fresh media containing 30 µM of the peptides. The HR, EJ, and SSA-mediated DSB repair, indicated by the restoration of a functional GFP gene in the respective cell lines, were quantified by measuring the relative abundance of GFP-positive cells by flow cytometry 3 d after transfection.

SK-N-BE(2)c cells = assay: TUNEL apoptosis assay, SK-N-BE(2)c; type: cell-based, human; conditions: 40 µM, 48 h, six fields
Protocol: To measure cell growth, cells were seeded at 3×10^4/ml. After being allowed to attach overnight, cells were treated with various concentrations of the peptides for 72 h. Cell growth was measured by the CellTitor-Glo assay (Promega, Madison, WI) according to manufacturer's instruction. To measure apoptosis, cells were seeded at 1×10^5/ml onto a chamber slide. Once attached, cells were treated with the peptides for 48 h. Cells were fixed and analyzed by a TUNEL assay using the TMR red in situ cell death detection kit (Roche Diagnostics, Indianapolis, IN).

[4] = tested on: breast, lung, and pancreatic cancer cell lines; assay: Toxicity to breast, lung, and pancreatic cancer cell lines (data not shown); type: cell-based; conditions: in comparison with non-malignant cell lines of respective tissue origins

## CC[C@H](C)[C@H](NC(=O)CNC(=O)[C@H](CC(C)C)NC(=O)[C@H](CS)NC(=O)[C@H](CS)NC(=O)[C@@H](CCCNC(=N)N)NC(=O)[C@@H](CCCNC(=N)N)NC(=O)[C@@H](CCCNC(=N)N)NC(=O)[C@@H](CCCNC(=N)N)NC(=O)[C@@H](CCCNC(=N)N)NC(=O)[C@@H](CCCNC(=N)N)NC(=O)[C@@H](CCCNC(=N)N)NC(=O)[C@@H](CCCNC(=N)N)NC(=O)[C@H](N)CCCNC(=N)N)C(=O)N1CCC[C@H]1C(=O)N[C@@H](CCC(=O)O)C(=O)N[C@@H](CCC(N)=O)C(=O)N[C@@H](CCC(=O)O)C(=O)N[C@@H](Cc1ccc(O)cc1)C(=O)O [R9-caPep] (H-[dR][dR][dR][dR][dR][dR][dR][dR][dR]CCLGIPEQEY-OH; N-terminus and C-terminus assumed)
[1]
  FEN1 co-localization with PCNA foci: didn't appear to overlap the PCNA foci
[2]
  intracellular LIGI or FEN1 level: didn't affect intracellular LIGI or FEN1 level
[3]
  HR-mediated DNA repair: significantly inhibited HR-mediated DNA repair
SK-N-BE(2)c cells
  apoptosis: TUNEL positivity: increased TUNEL positivity
[4]
  toxicity to breast, lung, and pancreatic cancer cell lines vs non-malignant lines: selectively toxic to breast, lung, and pancreatic cancer cell lines
